Measured values taken from PubChem BioAssay (NCI).
Several values for one entry are separate records, joined by “and”; a condition that tells them apart may be missing. Identical values can stand only once.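 Five concentrations, 48 hours, 96-well plates. GI50 is the concentration that inhibits growth by half. The concentration for full growth arrest is given as TGI.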

Columns and labels:
Experiment in all cases: NCI anticancer screen, dose series, 48 h
[1] = tested on: OVCAR-5 ovarian
[2] = tested on: NCI-H23 lung
[3] = tested on: SNB-19 CNS
[4] = tested on: HCT-15 colon
[5] = tested on: LOX IMVI melanoma
[6] = tested on: CCRF-CEM leukemia
[7] = tested on: NCI-H522 lung
[8] = tested on: MOLT-4 leukemia
[9] = tested on: M14 melanoma
[10] = tested on: HL-60(TB) leukemia

Row | SMILES | GI50 [1] | TGI [1] | GI50 [2] | TGI [2] | GI50 [3] | TGI [3] | GI50 [4] | TGI [4] | GI50 [5] | TGI [5] | GI50 [6] | TGI [6] | GI50 [7] | TGI [7] | GI50 [8] | TGI [8] | GI50 [9] | TGI [9] | GI50 [10] | TGI [10]
1 | Nc1c(C(=O)c2cccc(-c3ccncc3)c2)cnn1-c1ccc(F)cc1F | > 25 µM | > 25 µM | 10.7 µM | > 25 µM | > 19.3 µM | > 25 µM | 2.19 µM | > 25 µM | 14.3 µM | > 25 µM | 17 µM | > 25 µM | 5.73 µM | > 18.7 µM | 8.39 µM | > 25 µM | 6.58 µM | > 25 µM | 5.57 µM | > 25 µM
2 | COc1cc(OC(=O)c2ccccc2)cc2c1C(=O)C=CC2=O |  | 54.5 µM |  | 33.3 µM |  | 56.4 µM |  | 31.4 µM |  | 36.3 µM |  | 5.63 µM |  | 12.4 µM |  | 14.6 µM |  | 32.5 µM |  | 3.04 µM
3 | COC(=O)c1nc(-c2ccccc2)oc1S(=O)(=O)Cc1ccccc1 | 3.12 µM | 11.3 µM | 16.2 µM | 34.4 µM | 16.3 µM | 31.3 µM | 1.79 µM | 3.58 µM | 2.88 µM | 8.7 µM | 2.91 µM | 8.41 µM | 1.52 µM | 3.29 µM | 2.11 µM | 5.57 µM | 3.87 µM | 16.3 µM | 2.3 µM | 6.22 µM
4 | C#Cc1c(F)ccc2cc(O)cc(-c3ncc4c(N5CC6CCC(C5)N6)nc(OC[C@@]56CCCN5C[C@H](F)C6)nc4c3F)c12 | 2.51 µM | 13.5 µM | 1.94 µM | 15.1 µM | 13.4 µM | 26.3 µM | 34.7 µM | > 50.6 µM | 15.5 µM | 41.9 µM | 8.21 µM | 29.1 µM | 14.5 µM | 31.3 µM | 8.72 µM | 28.4 µM | 14 µM | 29.6 µM | 8.23 µM | 26.6 µM
5 | COc1cc(C[C@H]2c3cc(OC)c(OC)cc3CCN2C)c(Oc2cc3c(cc2OC)-c2c(OC)c(OC)cc4c2[C@H](C3)N(C)CC4)cc1OC | 18 µM | 33.6 µM and 32.6 µM | 17.8 µM | 30.2 µM and 36.2 µM | 20.3 µM | 41.8 µM and 54 µM | 10.8 µM | 26.4 µM and 23.4 µM | 9.21 µM | 14.7 µM and 24.3 µM | 6.59 µM | 27.6 µM and 22.6 µM | 5.13 µM | 16.2 µM and 17 µM | 4.06 µM | 20.4 µM and 12.2 µM | 1.9 µM | 4.36 µM and 3.48 µM | 5.71 µM | 13.9 µM and 19.4 µM
6 | Cc1ccc(S(=O)(=O)N/N=C/c2c(O)ccc3ccccc23)cc1 |  | 88.2 µM |  | 83.2 µM |  | > 100 µM |  | > 100 µM |  | > 100 µM |  | > 100 µM |  | 45.6 µM |  | > 100 µM |  | 64.9 µM |  | > 100 µM
7 | CCC[CH2][Sn]1([CH2]CCC)[O]C(=O)c2cccnc2[O]1 | 11.9 µM | 24.2 µM | 1.33 µM | 2.99 µM | 2.65 µM | 10.6 µM | 1.9 µM | 3.66 µM | 1.81 µM | 3.51 µM | 0.731 µM | 3.08 µM | 0.476 µM | 1.67 µM | 2.09 µM | 5.96 µM | 3.11 µM | 10.6 µM | 1.34 µM | 3.99 µM
8 | COc1ccc(-c2nc(-c3nc4ccc(OC)cc4[nH]3)c3ccccn23)cc1 | 11.4 µM | > 100 µM | 12.7 µM | > 100 µM | 5.26 µM | > 100 µM | 3.76 µM | 90.6 µM | 4.8 µM | 26 µM | 2.53 µM | 26.8 µM | 2.89 µM | 11.2 µM | 3.37 µM | 16.9 µM | 3.74 µM | 16 µM | 2.55 µM | 7.75 µM
9 | Oc1ccccc1/C=C/c1csnn1 |  | > 100 µM |  | > 100 µM |  | > 100 µM |  | > 94.3 µM |  | 99.1 µM |  | > 100 µM |  | > 100 µM |  | > 100 µM |  | > 100 µM |  | 99.7 µM
10 | CCN(CC)CCCC(C)Nc1ccnc2cc(Oc3ccccc3)ccc12 (stereo not given) | 13.1 µM and 13.4 µM | 41.3 µM and 44.1 µM | 10.4 µM and 22.8 µM | 28.7 µM and > 100 µM | 15.8 µM and 25.4 µM | 66.3 µM and > 100 µM | 4.34 µM and 3.94 µM | 28.3 µM and 20.1 µM | 2.05 µM and 2.13 µM | 5.06 µM and 6.82 µM | 2.64 µM and 4.69 µM | 12.8 µM and 55.6 µM | 3.06 µM and 3.77 µM | 13 µM and 17 µM | 4.32 µM and 9.05 µM | 17.8 µM and 82.8 µM | 1.77 µM and 1.79 µM | 3.5 µM and 3.35 µM | 3.24 µM and 13.1 µM | 9.38 µM and 41.6 µM
11 | OC(c1ccccc1)(c1ccccc1)c1ccncc1 |  | > 100 µM |  | > 100 µM |  | > 100 µM |  | > 100 µM |  | > 100 µM |  | > 100 µM |  | > 100 µM |  | > 100 µM |  | > 100 µM |  | > 100 µM
12 | CCOC(=O)N1CCN(C=S)CC1 |  | > 100 µM |  | > 100 µM |  | > 100 µM |  | > 100 µM |  | > 100 µM |  | > 100 µM |  | > 100 µM |  | > 100 µM |  | > 100 µM |  | > 100 µM
13 | N#CC(NC12CC3CC(CC(C3)C1)C2)c1ccc2c(c1)OCO2 (stereo not given) |  | > 100 µM |  | > 100 µM |  | > 100 µM |  | > 100 µM |  | > 100 µM |  | > 100 µM |  | > 100 µM |  | > 100 µM |  | > 100 µM |  | > 100 µM
14 | COc1ccc(/C(COc2ccc3c(=O)cc(-c4ccccc4)oc3c2)=N\O)cc1 | 0.402 µM | > 10.2 µM | 29.5 µM | > 50 µM | 18.7 µM | > 50 µM | 22.8 µM | > 50 µM | 9.4 µM | 24.4 µM | > 50 µM | > 50 µM | 7.32 µM | 26.6 µM | > 50 µM | > 50 µM | 29.1 µM | > 50 µM | > 14 µM | > 50 µM
15 | COc1ccc(-c2cn(-c3cc(OC)c(OC)c(OC)c3)c(SCc3ccccc3)n2)cc1OC | > 100 µM | > 100 µM | > 100 µM | > 100 µM | > 100 µM | > 100 µM | > 100 µM | > 100 µM | > 100 µM | > 100 µM | > 100 µM | > 100 µM | > 100 µM | > 100 µM | 73.3 µM | > 100 µM | > 100 µM | > 100 µM | > 100 µM | > 100 µM
